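In this assay, cells in 96-well plates receive the compound at five concentrations for 48 hours. Endpoints are linearly interpolated between the surrounding concentrations. The concentration for 50% growth inhibition is given as GI50. The concentration for full growth arrest is given as TGI.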
Assays:
Experiment in all cases: inhibition of tumour cell growth, NCI panel, 48 h
786-0 renal = test system: 786-0 renal
HL-60(TB) leukemia = test system: HL-60(TB) leukemia
HT29 colon = test system: HT29 colon
RXF 393 renal = test system: RXF 393 renal
NCI/ADR-RES ovarian = test system: NCI/ADR-RES ovarian
T-47D breast = test system: T-47D breast
TK-10 renal = test system: TK-10 renal
OVCAR-8 ovarian = test system: OVCAR-8 ovarian
SN12C renal = test system: SN12C renal
NCI-H226 lung = test system: NCI-H226 lung
SF-268 CNS = test system: SF-268 CNS
MALME-3M melanoma = test system: MALME-3M melanoma
IGROV1 ovarian = test system: IGROV1 ovarian
A498 renal = test system: A498 renal
UO-31 renal = test system: UO-31 renal
CAKI-1 renal = test system: CAKI-1 renal
HS 578T breast = test system: HS 578T breast
UACC-257 melanoma = test system: UACC-257 melanoma
NCI-H522 lung = test system: NCI-H522 lung
UACC-62 melanoma = test system: UACC-62 melanoma
OVCAR-3 ovarian = test system: OVCAR-3 ovarian
COLO 205 colon = test system: COLO 205 colon
ACHN renal = test system: ACHN renal
OVCAR-4 ovarian = test system: OVCAR-4 ovarian
MOLT-4 leukemia = test system: MOLT-4 leukemia
BT-549 breast = test system: BT-549 breast
SK-MEL-2 melanoma = test system: SK-MEL-2 melanoma
A549 NSCLC = test system: A549 NSCLC
HCT-15 colon = test system: HCT-15 colon
EKVX NSCLC = test system: EKVX NSCLC
SK-MEL-5 melanoma = test system: SK-MEL-5 melanoma
DU-145 prostate = test system: DU-145 prostate
SF-295 CNS = test system: SF-295 CNS
PC-3 prostate = test system: PC-3 prostate
HCC-2998 colon = test system: HCC-2998 colon
SW-620 colon = test system: SW-620 colon
CCRF-CEM leukemia = test system: CCRF-CEM leukemia
MDA-MB-231 breast = test system: MDA-MB-231 breast
OVCAR-5 ovarian = test system: OVCAR-5 ovarian
NCI-H460 lung = test system: NCI-H460 lung
SF-539 CNS = test system: SF-539 CNS
SK-OV-3 ovarian = test system: SK-OV-3 ovarian
M14 melanoma = test system: M14 melanoma
NCI-H23 lung = test system: NCI-H23 lung
SNB-75 CNS = test system: SNB-75 CNS
HCT-116 colon = test system: HCT-116 colon
SK-MEL-28 melanoma = test system: SK-MEL-28 melanoma
SNB-19 CNS = test system: SNB-19 CNS
RPMI-8226 leukemia = test system: RPMI-8226 leukemia
HOP-92 NSCLC = test system: HOP-92 NSCLC
U251 CNS = test system: U251 CNS
MCF7 breast = test system: MCF7 breast
LOX IMVI melanoma = test system: LOX IMVI melanoma
K-562 leukemia = test system: K-562 leukemia
MDA-MB-435 = test system: MDA-MB-435
HOP-62 NSCLC = test system: HOP-62 NSCLC
KM12 colon = test system: KM12 colon

Work on CN1CCCN(C(c2ccccc2)c2ccc(Br)cc2)CC1 (stereo not drawn) yielded a GI50 (786-0 renal) of 3.94 µM, a TGI (786-0 renal) of 14 µM and a GI50 (HL-60(TB) leukemia) of 3.52 µM. The TGI (HL-60(TB) leukemia) was 34.1 µM, the GI50 (HT29 colon) was 2.92 µM and the TGI (HT29 colon) was 13.1 µM. It also gave a GI50 (RXF 393 renal) of 2.65 µM, a TGI (RXF 393 renal) of 8.67 µM and a GI50 (NCI/ADR-RES ovarian) of 3.09 µM. It also gave a GI50 (T-47D breast) of 3.18 µM, a TGI (T-47D breast) of 19.2 µM and a GI50 (TK-10 renal) of 10.4 µM. The TGI (TK-10 renal) was 22.7 µM, the GI50 (OVCAR-8 ovarian) was 6.5 µM and the TGI (OVCAR-8 ovarian) was 21 µM. It also gave a GI50 (SN12C renal) of 3.51 µM, a TGI (SN12C renal) of 12.5 µM and a GI50 (NCI-H226 lung) of 7.23 µM. For the same compound, the TGI (NCI-H226 lung) was 20.8 µM, the GI50 (SF-268 CNS) was 2.76 µM and the TGI (SF-268 CNS) was 8.97 µM. It also gave a GI50 (MALME-3M melanoma) of 2.57 µM, a TGI (MALME-3M melanoma) of 11.8 µM and a GI50 (IGROV1 ovarian) of 8.83 µM. It also gave a TGI (IGROV1 ovarian) of 22.1 µM, a GI50 (A498 renal) of 5.86 µM and a TGI (A498 renal) of 17.9 µM. It also gave a GI50 (UO-31 renal) of 2.65 µM, a TGI (UO-31 renal) of 16 µM and a GI50 (CAKI-1 renal) of 3.24 µM. The TGI (CAKI-1 renal) was 13.4 µM, the GI50 (HS 578T breast) was 2.37 µM and the TGI (HS 578T breast) was 6.35 µM. The GI50 (UACC-257 melanoma) was 2.41 µM, the TGI (UACC-257 melanoma) was 5.41 µM and the GI50 (NCI-H522 lung) was 3.62 µM. The TGI (NCI-H522 lung) was 13.9 µM, the GI50 (UACC-62 melanoma) was 2.03 µM and the TGI (UACC-62 melanoma) was 4.35 µM. For the same compound, the GI50 (OVCAR-3 ovarian) was 2.83 µM, the TGI (OVCAR-3 ovarian) was 10.2 µM and the GI50 (COLO 205 colon) was 3.93 µM. For the same compound, the TGI (COLO 205 colon) was 16.2 µM, the GI50 (ACHN renal) was 3.62 µM and the TGI (ACHN renal) was 14.1 µM. For the same compound, the GI50 (OVCAR-4 ovarian) was 7.63 µM, the TGI (OVCAR-4 ovarian) was 20.5 µM and the GI50 (MOLT-4 leukemia) was 3.92 µM. For the same compound, the TGI (MOLT-4 leukemia) was 58.2 µM, the GI50 (BT-549 breast) was 4.89 µM and the TGI (BT-549 breast) was 19.4 µM. The GI50 (SK-MEL-2 melanoma) was 3.66 µM, the TGI (SK-MEL-2 melanoma) was 11.3 µM and the GI50 (A549 NSCLC) was 10.9 µM. For the same compound, the TGI (A549 NSCLC) was 25.6 µM, the GI50 (HCT-15 colon) was 3.49 µM and the TGI (HCT-15 colon) was 14 µM. For the same compound, the GI50 (EKVX NSCLC) was 4.94 µM, the TGI (EKVX NSCLC) was 19.6 µM and the GI50 (SK-MEL-5 melanoma) was 1.85 µM. The TGI (SK-MEL-5 melanoma) was 3.74 µM, the GI50 (DU-145 prostate) was 10.5 µM and the TGI (DU-145 prostate) was 22.3 µM. The GI50 (SF-295 CNS) was 3.52 µM, the TGI (SF-295 CNS) was 14.5 µM and the GI50 (PC-3 prostate) was 2.87 µM. For the same compound, the TGI (PC-3 prostate) was 13.5 µM, the GI50 (HCC-2998 colon) was 4.55 µM and the TGI (HCC-2998 colon) was 16 µM. For the same compound, the GI50 (SW-620 colon) was 2.9 µM, the TGI (SW-620 colon) was 10.6 µM and the GI50 (CCRF-CEM leukemia) was 4.14 µM. For the same compound, the TGI (CCRF-CEM leukemia) was 18.9 µM, the GI50 (MDA-MB-231 breast) was 2.41 µM and the TGI (MDA-MB-231 breast) was 7.81 µM. For the same compound, the GI50 (OVCAR-5 ovarian) was 10.7 µM, the TGI (OVCAR-5 ovarian) was 22.5 µM and the GI50 (NCI-H460 lung) was 6.55 µM. For the same compound, the TGI (NCI-H460 lung) was 19 µM, the GI50 (SF-539 CNS) was 3.09 µM and the TGI (SF-539 CNS) was 11.1 µM. It also gave a GI50 (SK-OV-3 ovarian) of 3.66 µM, a TGI (SK-OV-3 ovarian) of 14.5 µM and a GI50 (M14 melanoma) of 1.61 µM. It also gave a TGI (M14 melanoma) of 2.99 µM, a GI50 (NCI-H23 lung) of 10.3 µM and a TGI (NCI-H23 lung) of 22.1 µM. The GI50 (SNB-75 CNS) was 3.1 µM, the TGI (SNB-75 CNS) was 17.9 µM and the GI50 (HCT-116 colon) was 1.84 µM. For the same compound, the TGI (HCT-116 colon) was 4.23 µM, the GI50 (SK-MEL-28 melanoma) was 2.43 µM and the TGI (SK-MEL-28 melanoma) was 5.97 µM. For the same compound, the GI50 (SNB-19 CNS) was 14.8 µM, the TGI (SNB-19 CNS) was 28 µM and the GI50 (RPMI-8226 leukemia) was 9.04 µM. For the same compound, the TGI (RPMI-8226 leukemia) was 36.2 µM, the GI50 (HOP-92 NSCLC) was 0.635 µM and the TGI (HOP-92 NSCLC) was 7.73 µM. For the same compound, the GI50 (U251 CNS) was 3 µM, the TGI (U251 CNS) was 10.3 µM and the GI50 (MCF7 breast) was 2.63 µM. For the same compound, the TGI (MCF7 breast) was 10 µM, the GI50 (LOX IMVI melanoma) was 2.85 µM and the TGI (LOX IMVI melanoma) was 10.1 µM. The GI50 (K-562 leukemia) was 5.04 µM, the TGI (K-562 leukemia) was > 100 µM and the GI50 (MDA-MB-435) was 1.87 µM. For the same compound, the TGI (MDA-MB-435) was 3.83 µM, the GI50 (HOP-62 NSCLC) was 6.52 µM and the TGI (HOP-62 NSCLC) was 19.3 µM. It also gave a GI50 (KM12 colon) of 2.73 µM and a TGI (KM12 colon) of 7.09 µM.
